Measured values: article PMC10487310, “Enzyme‐responsive macrocyclic metal complexes for biomedical imaging” (Bioengineering & Translational Medicine, 2022)
Read-outs that look alike come from different tables or passages of the source. Ends that are not written are not given here.

Columns and labels:
[1] = Copper-64 chloride loading, radioactivity by dose calibrator; type: physicochemical; details: sodium acetate buffer pH 5.0, 2 h at 80°C
Procedure: (§1) Metal ions are complexed with macrocyclam derivatives in acidic condition (Figure 2c). The lyophilized macrocyclam derivatives were dissolved in distilled water. A 100 nmol aliquot of NrMC or ErMC was mixed with gadolinium chloride (Sigma‐Aldrich) or radioactive copper‐64 chloride in sodium acetate buffer (pH 5.0) and incubated for 2 h at 80°C. Unloaded Gd was removed using a PD‐SpinTrap™ G‐25 column (GE Healthcare, Little Chalfont, UK). The loading amount of Gd in each sample was measured by inductively coupled plasma mass spectrometry (ICP‐MS, Varian 820‐MS; Varian, Palo Alto, CA, USA). Gd chelation consists of a reaction between the Gd^3+ and arsenazo III dye under acidic conditions to form a blue–purple complex. Radioactivity was measured using a dose calibrator (Biodex Medical Systems, Shirley, NY, USA).

SCC7 tumor [2] = assay: In vivo PET/CT imaging of tumor-bearing mice
Procedure: (§2) Five‐week‐old Balb/c or athymic nude mice (Raon Bio, Yongin, Republic of Korea) were used for in vivo experiments. All studies using animals conformed to the Guidelines for the Care and Use of Laboratory Animals of the Institute of Laboratory Animal Resources at Seoul National University (approved animal experimental protocol number, SNU‐190821‐5).
(§3) The biodistribution of macrocyclam derivatives was determined by MRI and positron emission tomography/computed tomography (PET/CT) scanning. Five‐week‐old female Balb/c nude mice were subcutaneously inoculated with 1 × 10^6 SCC7 cells on the dorsal left side. When tumor volumes reached 150 mm^3, samples were intravenously administered. For in vivo MRI, Gd@NrMC or Gd@ErMC was injected at a Gd dose of 0.7 mg/kg. The mice were monitored in vivo at different time points using an MRI scanner (Bruker‐Biospin) equipped with an animal‐imaging coil. For PET/CT imaging, ^64Cu@NrMC or ^64Cu@ErMC was injected at a ^64Cu dose of approximately 240 μCi/mouse, and the mice were monitored in vivo at different time point using a PET/CT scanner (Inveon microPET/CT scanner, Siemens Medical Solutions, Malvern, PA, USA).

SCC7 cells [3] = assay: Cellular uptake, in vitro T1 MR imaging; type: cell-based, murine; details: Gd 100 μM, 24 h
Procedure: (§4) Cellular uptake was assessed by in vitro MR imaging, ICP‐MS, and scanning electron microscopy combined with energy‐dispersive x‐ray spectroscopy (SEM/EDS) analysis. For in vitro MR imaging, murine squamous cell carcinoma SCC7 cells were seeded onto six‐well plates at a density of 3 × 10^5 cells per well. After 24 h, the cells were treated with Gadovist or macrocyclam derivatives at Gd concentrations of 100 μM for 24 h. MR images were obtained and analyzed using an MRI scanner (Bruker‐Biospin). To assess enzyme‐dependent cellular uptake, 3T3‐L1 cells were pretreated with various concentrations of MMP‐9 (Sigma‐Aldrich). For ICP‐MS analysis, the cells were washed and completely dissolved with 90% nitric acid (Sigma‐Aldrich). To quantify Gd taken up by cells, the dissolved cells were digested with 1 ml of aqua regia (HCl: HNO3 = 3: 1, m/m) at 130°C. The solutions were completely dried and redissolved in deionized water, and the amounts of Gd were measured by ICP‐MS (Varian 820‐MS). For SEM/EDS analysis, SCC7 cells were seeded in cover glass‐inserted 24‐well plates at a density of 2 × 10^5 cells per well, followed by treatment of the samples for 24 h. A field‐emission SEM system (Supra 55VP; Carl Zeiss, Oberkochen, Germany) was used for SEM imaging combined with EDS mapping.

[4] = Hydrodynamic size by dynamic light scattering; type: physicochemical
Procedure: (§5) The size, zeta potential, and morphology of each macrocyclam derivative were determined. Size was measured using dynamic light scattering, and zeta potential was assessed by laser Doppler microelectrophoresis at an angle of 22°, with both size and zeta potential being measured using an ELS8000 instrument (Photal, Osaka, Japan). The relaxation times of Gd‐loaded materials were examined using a 7 T/20 MRI instrument (Bruker‐Biospin, Ettlingen, Germany) at 37°C. Each sample was serially diluted to Gd concentrations of 37, 75, 150, and 300 μM, and the T1‐weighted MR signal intensities of 200‐μl samples were determined. The relaxation rate, r1 (r1 = 1/T1), for each preparation was calculated from acquired images.

T1 relaxivity, 7 T MRI = type: physicochemical; details: 37°C, Gd 37, 75, 150 and 300 μM
Procedure: as §5

[5] = Size stability of nanostructure in TDW, PBS or 10% serum; type: physicochemical; details: size measured in TDW, PBS or 10% serum (Figure S1)
Procedure: Fig. S1. Serum stability of macrocyclic complex
Size of ErMC was measured in TDW, PBS, or 10% serum condition.

[6] = In vivo safety, serum biochemistry (ALT, AST, ALP, BUN, TBIL); details: Balb/c mice, Gd 3.5 mg/kg, 1 week after injection, compared with untreated mice
Procedure: (§6) The in vivo safety of macrocyclam derivatives was determined by histological and serological analyses. Five‐week‐old Balb/c mice were intravenously administered with at Gd@NrMC or Gd@ErMC at a Gd dose of 3.5 mg/kg. Briefly, NrMC (470 nmol) or ErMC (650 nmol) was mixed with gadolinium chloride in sodium acetate buffer (pH 5.0) and incubated for 2 h at 80°C. Unloaded Gd was removed using a PD‐SpinTrap™ G‐25 column. The samples including 70 μg of Gd were intravenously administered to mice. After 1 week, animals (n = 4 per group) were euthanized, and their organs (heart, lung, liver, spleen, and kidney) and sera were collected for histopathological and biochemical evaluation. Extracted organs were fixed in 10% formalin solution for 24 h and embedded in paraffin. For hematoxylin and eosin staining, each organ section was immersed in filtered Harris hematoxylin for 10 s and then in eosin for 30 s. The stained slides were visualized using a Vectra 3.0 Automated Quantitative Pathology Imaging System (PerkinElmer, Hopkinton, MA, USA), and the images were analyzed using InForm v2.4.11. software (PerkinElmer). The serum concentrations of alanine aminotransferase (ALT), aspartate aminotransferase (AST), […] (ALP), blood urea nitrogen (BUN), and total bilirubin (TBIL) were measured using an automatic chemistry analyzer (DRI‐CEHM 3500s; Fujifilm, Kanagawa, Japan).

3T3‐L1 cells [7] = assay: Enzyme-dependent cellular uptake of Gd by ICP-MS, MMP-spiked versus blank media; type: cell-based; details: 3T3-L1 cells pretreated with MMP-9, ICP-MS
Procedure: as §4

SCC7 tumor [8] = type: in vivo, mice; details: for tumor/normal tissue (TN) ratio: Gd 0.7 mg/kg, T1-weighted signal intensity
Procedure: as §2, §3

SCC7 cells [9] = assay: SEM/EDS elemental mapping of treated cells; type: cell-based, murine; details: 24 h
Procedure: as §4

[10] = Gd loading of macrocyclam derivatives by ICP-MS; type: physicochemical; details: gadolinium chloride in sodium acetate buffer pH 5.0, 2 h at 80°C, unloaded Gd removed on G-25 column
Procedure: as §1

[11] = In vivo safety, H&E histology of major organs; details: Balb/c mice, intravenous, Gd 3.5 mg/kg, 1 week, n = 4 per group
Procedure: as §6

[12] = Zeta potential by laser Doppler microelectrophoresis; type: physicochemical
Procedure: as §5

SCC7 cells [13] = assay: Cellular uptake of Gd by ICP-MS; type: cell-based, murine; details: Gd 100 μM, 24 h
Procedure: as §4

3T3‐L1 cells [14] = assay: MTT cell viability; type: cell-based; details: 3T3 cells, 24 h treatment
Procedure: The viability of cells treated with macrocyclam derivatives was assessed by MTT and apoptosis detection assays, and by live/dead cell staining. The 3T3‐L1 cells were seeded onto 24‐well plates at a density of 1 × 10^5 cells per well for 24 h and the cells were treated with macrocyclam derivatives for 24 h. MTT (3‐(4,5‐dimethylthiazol‐2‐yl)‐2,5‐diphenyltetrazolium bromide) solution (final concentration, 500 μM) was added to each well and the cells incubated for 2 h. After aspiration of medium, the cells were dissolved in 200 μl dimethyl sulfoxide (DMSO; Sigma‐Aldrich). Formazan crystals generated by metabolically active cells were quantified by measuring optical density at 570 nm using a microplate reader (Tecan Group Ltd., Seestrasse, Mannedorf, Switzerland). Cell viability was analyzed by calculating the percent optical density of treated cells relative to control cells. Live and dead cell populations were determined using EZ‐view Live/Dead Cell Staining Kits (Biomax, Seoul, Republic of Korea). […] The absorbance of each well was measured at 490/545 nm using fluorescence microscopy (IX70; Olympus, Japan). Cell apoptosis was analyzed using a FACSCalibur flow cytometer (BD Biosciences, CA, USA) with annexin V staining. […] Cell surface expression was analyzed using a FACSCalibur flow cytometer (BD Biosciences), with the results analyzed using FlowJo software (BD Biosciences).

GGPLGVRGGGGG-OH [^64Cu@ErMC]
copper-64 chloride loading capacity [1]: 22.4% | percentage of injected 64Cu in tumors relative to 64Cu@NrMC-treated mice (SCC7 tumor [2]; 24 h post-dose): 2.9 fold | percentage of injected 64Cu in tumors relative to 64Cu@NrMC-treated mice (SCC7 tumor [2]; 48 h post-dose): 2 fold | PET signal in tumor tissue (SCC7 tumor [2]; intravenous, approximately 240 μCi/mouse, SCC7 tumor-bearing mice): enhanced signals

GGPLGVRGGGGG-OH [Gd@ErMC, Gd loaded into enzyme-responsive macrocyclam modified with a PEGylated MMP-cleavable peptide; self-assembled nanoparticles]
T1 MRI signal of MMP-overexpressing cells (SCC7 cells [3]): higher for the Gd@ErMC group than for other groups | hydrodynamic size [4]: 310.2 ± 50.2 nm | longevity relaxivity (r1) (T1 relaxivity, 7 T MRI): 33.4 mM⁻¹ s⁻¹ | nanostructure in physiological conditions [5]: maintained | liver and kidney function enzyme levels in blood [6]: within normal range | Gd accumulation in cells treated with MMP relative to blank media (3T3‐L1 cells [7]): 7.2 fold | tumor/normal tissue (TN) ratio (SCC7 tumor [8]; 1 h after intravenous injection): 1.8 | tumor/normal tissue (TN) ratio (SCC7 tumor [8]; 24 h after intravenous injection): 3.4 | colocalization of Gd on the cell surface (EDS-SEM) (SCC7 cells [9]): bound to cell membranes | gadolinium loading capacity [10]: 29.3 ± 14.5 mol% | histology of heart, lungs, liver, spleen and kidneys [11]: no visible microscopically abnormal features | zeta potential [12]: slightly positive | intracellular Gd concentration relative to Gd@NrMC-treated cells (SCC7 cells [13]): 32.2 fold

O=C([O-])CN1CCN(CC(=O)[O-])CCN([C@H](CO)[C@H](O)CO)CCN(CC(=O)[O-])CC1.[Gd+3] (racemic) [Gadovist, reference compound]
change of tumor/normal tissue (TN) ratio over time (SCC7 tumor [8]; 1 h to 24 h after intravenous injection): not enhanced over time | viability of cells (MTT) (3T3‐L1 cells [14]): no effect
